From patent US10301288B2, “Kinase inhibitors” (Topivert Pharma Limited, priority 2013, dated 2019)
Read-outs that look alike come from different tables or passages of the source.

Columns and labels:
[1] = Cryopreserved hepatocyte stability, Cynomolgus macaque; assay type: in vitro ADME; details: pooled cryopreserved hepatocytes, read-out: Mean intrinsic clearance
Procedure: Formulae Clint(tissue clearance) mL/min/kg=[0.693/t½ (min)]×[1/microsomal protein concentration mg/mL]×[mg microsomes/g liver]×[g liver/kg body weight] […] The incubations were performed at 37° C. with 100 μL, samples taken from the incubation, at 0, 10, 20, 45 and 90 minutes, and reactions terminated by addition of 100 μL of acetonitrile containing carbamazepine as analytical internal standard. […] Half-life values were calculated from the relationship T1/2 (min)=−0.693/λ • where λ was the slope of the Ln concentration vs time curve. • Standard compounds testosterone, midazolam and 4-methylumbelliferone are included in the assay design.
Clint(Tissue Clearance) mL/min/kg=[0.693/t½(min)]×[1/hepatocyte concentration (million cells/mL)]×[million cells/g liver]×[g liver/kg body weight] Clint(Hepatic clearance) mL/min/kg=hepatic blood flow×Clint/(hepatic blood flow+Clint) Hepatic extraction ratio(Eh)=Clint(Hepatic clearance) mL/min/kg/hepatic blood flow (mL/min/kg)

d-U937 cells = test: (a) LPS-induced TNFα/IL-8 release in d-U937 cells; assay type: cell-based; details: Homo sapiens, dU937 cells
Procedure: U937 cells, a human monocytic cell line, are differentiated into macrophage-type cells by incubation with PMA (100 ng/mL) for 48 to 72 hr. Cells are pre-incubated with final concentrations of test compound for 2 hr and are then stimulated with LPS (0.1 μg/mL; from E. Coli: O111:B4, Sigma) for 4 hr. The supernatant is collected for determination of TNFα and IL-8 concentrations by sandwich ELISA (Duo-set, R&D systems). […] The relative 50% effective concentration (REC50) is determined from the resultant concentration-response curve. The inhibition of IL-8 production is calculated at each concentration of test compound by comparison with vehicle control.

C#Cc1cc(Nc2nccc(Oc3ccc(NC(=O)Nc4cc(C(C)(C)C)nn4-c4ccc(C)cc4)c4ccccc34)n2)cc(C(=O)NCCOCCOCCOC)c1 [Example 2, 3-((4-((4-(3-(3-(tert-Butyl)-1-(p-tolyl)-1H-pyrazol-5-yl)ureido)naphthalen-1-yl)oxy)pyrimidin-2-yl)amino)-5-ethynyl-N-(2-(2-(2-methoxyethoxy)ethoxy)ethyl)-benzamide]
hepatocyte CLint at 0.1 μM [1]: 43 µL/min/1e6 cells | IC50 (d-U937 cells; read-out: IC50 for Inhibition of Cytokine Release, IL-8): 0.5 nM | IC50 (d-U937 cells; read-out: IC50 for Inhibition of Cytokine Release, TNFα): 0.5 nM
